In patent publication US20030087963A1, “Methods of preparing and using 2-hydroxy derivatives of sibutramine and its metabolites” (priority 2001, published 2003) one finds IC50 data, which are given here for five molecules.

Assay [1] concerns the target T1, functional uptake of serotonin (5-HT) (Rattus norvegicus, UniProt P31652).
T1 construct: synaptosomes prepared from rat whole brain, hypothalamus, or corpora striata, respectively; from tissue; host or cells: rat whole brain synaptosomes
The experiment in a line: Inhibition of functional uptake of serotonin (5-HT) into synaptosomes from rat whole brain. It counts as biochemical. How it is done:
(§1) The 2-hydroxy derivatives of the sibutramine metabolites N-desmethyl and N-didesmethylsibutramine (DMS and DDMS, respectively) were tested for their inhibition of functional uptake of serotonin (5-HT), norepinephrine (NE), or dopamine (DA), into synaptosomes prepared from rat whole brain, hypothalamus, or corpora striata, respectively, using methods known in the art. In addition, binding was determined at the nonselective muscarinic receptor and the […] from rat cerebral cortex and rat adipose tissue, respectively.
(§2) IC50 values (concentration inhibiting control activity by 50 percent) were then determined by nonlinear regression analysis of the inhibition curves and tabulated below.

Assay [2] addresses T2, functional uptake of norepinephrine (NE) (Rattus norvegicus, UniProt Q63380).
T2 construct: synaptosomes prepared from rat whole brain, hypothalamus, or corpora striata, respectively; from tissue; host or cells: rat hypothalamus synaptosomes
The experiment in a line: Inhibition of functional uptake of norepinephrine (NE) into synaptosomes from rat hypothalamus. It counts as biochemical. How it is done:
as §1, §2

Assay [3] deals with T3, functional uptake of dopamine (DA) (Rattus norvegicus, UniProt P23977).
T3 construct: synaptosomes prepared from rat whole brain, hypothalamus, or corpora striata, respectively; from tissue; host or cells: rat corpora striata synaptosomes
In words: Inhibition of functional uptake of dopamine (DA) into synaptosomes from rat corpora striata. It counts as biochemical. As to the method:
as §1, §2

Assay [4] concerns the target nonselective muscarinic receptor. In words: Binding at the nonselective muscarinic receptor from rat cerebral cortex. As to the method: as §1, §2
Setting [5] is: synaptosomes from rat hypothalamus, read-out: IC50, NE functional uptake.

Where two headings read alike, the source gives them in different places.

T1 sequence (P31652 whole entry): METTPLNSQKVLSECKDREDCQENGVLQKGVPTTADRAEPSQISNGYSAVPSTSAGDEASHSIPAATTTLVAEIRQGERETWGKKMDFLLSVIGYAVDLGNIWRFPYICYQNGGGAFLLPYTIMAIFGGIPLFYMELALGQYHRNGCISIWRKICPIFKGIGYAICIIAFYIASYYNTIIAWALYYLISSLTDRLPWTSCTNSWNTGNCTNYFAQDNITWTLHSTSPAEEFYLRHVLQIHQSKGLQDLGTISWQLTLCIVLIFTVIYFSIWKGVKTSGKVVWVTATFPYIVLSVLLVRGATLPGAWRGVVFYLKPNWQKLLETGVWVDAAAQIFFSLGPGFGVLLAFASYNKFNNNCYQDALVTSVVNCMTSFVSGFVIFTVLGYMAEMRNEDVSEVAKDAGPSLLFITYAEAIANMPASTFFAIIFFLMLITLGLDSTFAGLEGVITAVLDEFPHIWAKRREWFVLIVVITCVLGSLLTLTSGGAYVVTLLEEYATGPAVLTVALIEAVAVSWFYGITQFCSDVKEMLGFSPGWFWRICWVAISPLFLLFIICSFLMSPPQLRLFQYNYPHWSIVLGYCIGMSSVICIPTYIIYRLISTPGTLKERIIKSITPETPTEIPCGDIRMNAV
T2 sequence (Q63380 1-617): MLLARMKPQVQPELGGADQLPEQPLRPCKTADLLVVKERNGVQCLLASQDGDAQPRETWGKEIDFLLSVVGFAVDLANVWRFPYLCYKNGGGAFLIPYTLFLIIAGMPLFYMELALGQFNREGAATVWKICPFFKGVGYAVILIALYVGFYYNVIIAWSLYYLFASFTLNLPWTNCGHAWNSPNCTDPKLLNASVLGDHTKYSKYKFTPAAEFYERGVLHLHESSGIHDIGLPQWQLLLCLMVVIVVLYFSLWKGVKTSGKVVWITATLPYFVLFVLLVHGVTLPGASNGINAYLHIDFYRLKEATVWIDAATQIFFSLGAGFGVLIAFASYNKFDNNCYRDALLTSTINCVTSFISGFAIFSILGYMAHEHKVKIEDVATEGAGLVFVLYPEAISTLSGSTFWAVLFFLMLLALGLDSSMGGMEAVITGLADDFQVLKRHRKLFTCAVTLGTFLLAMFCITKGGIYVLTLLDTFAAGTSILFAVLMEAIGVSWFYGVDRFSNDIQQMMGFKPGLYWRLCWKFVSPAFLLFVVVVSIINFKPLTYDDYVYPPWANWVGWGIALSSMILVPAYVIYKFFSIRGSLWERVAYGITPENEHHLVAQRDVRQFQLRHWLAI
T3 sequence (P23977 whole entry): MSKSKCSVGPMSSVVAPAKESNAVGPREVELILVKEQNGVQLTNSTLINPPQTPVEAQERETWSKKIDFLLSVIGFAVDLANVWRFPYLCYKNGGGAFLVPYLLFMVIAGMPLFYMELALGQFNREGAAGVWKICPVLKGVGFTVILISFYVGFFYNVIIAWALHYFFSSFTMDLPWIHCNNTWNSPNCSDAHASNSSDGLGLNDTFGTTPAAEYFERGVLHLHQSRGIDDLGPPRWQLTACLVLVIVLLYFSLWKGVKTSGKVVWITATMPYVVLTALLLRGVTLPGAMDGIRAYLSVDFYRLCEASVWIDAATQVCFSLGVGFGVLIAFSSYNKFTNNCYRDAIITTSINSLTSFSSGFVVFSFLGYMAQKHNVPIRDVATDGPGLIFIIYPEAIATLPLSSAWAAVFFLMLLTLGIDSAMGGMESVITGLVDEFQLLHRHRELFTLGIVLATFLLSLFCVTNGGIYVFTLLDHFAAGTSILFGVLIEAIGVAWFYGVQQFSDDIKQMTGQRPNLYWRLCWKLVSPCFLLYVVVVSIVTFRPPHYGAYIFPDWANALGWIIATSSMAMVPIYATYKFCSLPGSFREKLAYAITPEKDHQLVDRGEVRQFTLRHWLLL

With `CC(C)(O)C[C@@H](N)C1(c2ccc(Cl)cc2)CCC1` [2-(R)-OH-DDMS, (R)-(−)-4-amino-[1-(4-chlorophenyl)cyclobutyl]-2-methyl-butan-2-ol], the IC50 (usually the concentration that inhibits the measured activity by half) in assay [1] worked out at 7.2 nM; in assay [2] (setting [5]) it was 6.2 nM; in assay [3] it was 18 nM.
For the molecule `CN[C@H](CC(C)(C)O)C1(c2ccc(Cl)cc2)CCC1` [2-(R)-OH-DMS, (R)-(+)-4-[1-(4-Chloro-phenyl)-cyclobutyl]-2-methyl-4-methylamino-butan-2-ol], the IC50 in assay [1] was determined as 22 nM; in assay [2] it was 23 nM; in assay [3] it was 48 nM; in assay [4], 8.97 µM.
Consider `CC(C)(O)C[C@H](N)C1(c2ccc(Cl)cc2)CCC1` [2-(S)-OH-DDMS, (S)-(+)-4-amino-[1-(4-chlorophenyl)cyclobutyl]-2-methyl-butan-2-ol], for which the IC50 in assay [1] amounted to 670 nM; in assay [2] (setting [5]), 71 nM; in assay [3], 59 nM.
As to `CN[C@@H](CC(C)(C)O)C1(c2ccc(Cl)cc2)CCC1` [2-(S)-OH-DMS], the IC50 in assay [1] was determined as 5400 nM; in assay [2], 310 nM; in assay [3] it was 370 nM; in assay [4], 4.48 µM.
In assay [4], `CN1[C@@H]2CC[C@H]1C[C@@H](OC(=O)C(CO)c1ccccc1)C2` (stereo partly drawn) [Atropine, reference compound] yielded an IC50 of 0.00038 µM.
